In patent US6919342B2, “Triazole compounds suitable for treating disorders that respond to modulation of the dopamine D3 receptor” (Abbott GmbH & Co. KG, priority 2003, dated 2005):

How the values were obtained:
[1] = target: T1, human dopamine D2L receptors (long isoform) (Homo sapiens, UniProt P14416); experiment: Dopamine D2L receptor binding, displacement of [125I] iodospiperone; conditions: membranes of HEK-293 cells, 0.01 nM [125I] iodospiperone, 25° C., 60 minutes; read-out: Ki D2
T1 construct: expressed in transfected cells; host or cells: HEK-293
Description: (§1) The substance to be tested was either dissolved in methanol/Chremophor® (BASF-AG) or in dimethyl sulfoxide and then diluted with water to the desired concentration.
(§2) Each assay mixture was run in triplicate.
The incubation buffer contained 50 mM tris, 120 mM NaCl, 5 mM KCl, 2 mM CaCl2, 2 mM MgCl2 and 0.1% bovine serum albumin. The buffer was adjusted to pH 7.4 with HCl.
(§3) After having been incubated at 25° C. for 60 minutes, the assay mixtures were filtered through a Wathman GF/B glass fiber filter under vacuum using a cell collecting device. The filters were transferred to scintillation viols using a filter transfer system. After 4 ml of Ultima Gold® (Packard) have been added, the samples were shaken for one hour and the radioactivity was then counted in a Beta-Counter (Packard, Tricarb 2000 or 2200CA). The cpm values were converted into dpm using a standard quench series and the program belonging to the instrument.
(§4) The inhibition curves were analyzed by means of iterative nonlinear regression analysis using the Statistical Analysis System (SAS) which is similar to the “LIGAND” program described by Munson and Rodbard.

[2] = target: T2, human dopamine D3 receptors (Homo sapiens, UniProt P35462); experiment: Dopamine D3 receptor binding, displacement of [125I]-iodosulpride; conditions: for Ki: membranes of HEK-293 cells, 0.1 nM [125I]-iodosulpride, 25° C., 60 minutes; for Selectivity [Ki(D2)/Ki(D3)]: ratio of Ki D2 to Ki D3
T2 construct: expressed in transfected cells; host or cells: HEK-293
Description: as §1, §2
The incubation buffer contained 50 mM tris, 120 mM NaCl, 5 mM KCl, 2 mM CaCl2, 2 mM MgCl2 and 0.1% bovine serum albumin, 10 μM quinolone and 0.1% ascorbic acid (prepared fresh daily). The buffer was adjusted to pH 7.4 with HCl.
as §3, §4

T2 sequence (P35462 whole entry): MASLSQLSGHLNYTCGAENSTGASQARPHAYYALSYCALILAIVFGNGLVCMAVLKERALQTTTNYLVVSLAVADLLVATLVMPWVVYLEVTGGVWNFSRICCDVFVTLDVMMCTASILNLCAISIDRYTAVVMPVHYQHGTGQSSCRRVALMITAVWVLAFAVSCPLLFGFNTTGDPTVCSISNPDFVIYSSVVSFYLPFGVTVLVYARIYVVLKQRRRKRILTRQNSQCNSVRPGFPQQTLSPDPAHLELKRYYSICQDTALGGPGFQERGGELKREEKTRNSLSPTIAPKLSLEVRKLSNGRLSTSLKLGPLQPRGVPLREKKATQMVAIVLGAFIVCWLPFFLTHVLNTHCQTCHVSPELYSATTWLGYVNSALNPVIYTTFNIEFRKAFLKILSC
T1 sequence (P14416 whole entry, canonical isoform): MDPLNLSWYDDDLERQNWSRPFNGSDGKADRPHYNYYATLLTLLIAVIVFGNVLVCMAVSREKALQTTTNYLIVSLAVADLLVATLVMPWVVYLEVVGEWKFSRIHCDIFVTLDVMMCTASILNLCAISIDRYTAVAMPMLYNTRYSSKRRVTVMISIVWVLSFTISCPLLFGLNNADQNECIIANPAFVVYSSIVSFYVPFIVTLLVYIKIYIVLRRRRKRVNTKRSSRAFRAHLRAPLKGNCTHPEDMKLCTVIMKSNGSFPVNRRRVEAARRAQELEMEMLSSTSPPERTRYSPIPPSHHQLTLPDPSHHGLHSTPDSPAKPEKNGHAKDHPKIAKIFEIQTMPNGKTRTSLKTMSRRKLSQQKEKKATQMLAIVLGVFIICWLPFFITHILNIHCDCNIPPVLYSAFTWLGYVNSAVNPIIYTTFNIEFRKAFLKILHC

| Structure (SMILES) | Ki [1] | Ki [2] | Selectivity [Ki(D2)/Ki(D3)] [2] | melting point |
| --- | --- | --- | --- | --- |
| Cn1c(N)nnc1SCCCN1CCN(c2cc(C(C)(C)C)nc(C(C)(C)C)n2)CC1 [A] | 12 nM | 0.7 nM | 19 | – |
| Cn1c(N)nnc1SCCCN1CCN(c2cc(C(F)(F)F)nc(C(C)(C)C)n2)CC1 [B] | 119 nM | 3.9 nM | 31 | – |
| Cl.Cn1cnnc1SCCCN1CCN(c2cc(C(F)(F)F)nc(C(C)(C)C)n2)CC1 [Example 6, 2-tert-Butyl-4-{4-[3-(4-methyl-4H-[1,2,4]triazol-3-ylsulfanyl)-propyl]-piperazin-1-yl}-6-trifluoromethyl-pyrimidine hydrochloride] | – | – | – | 92 to 95 °C |
